Assay results from patent US6100074A, “Mutant mono-oxygenase cytochrome P-450 cam” (BG plc, priority 1994, dated 2000).

Assays:
wild type P450cam [1] = target: T1, wild type P450cam (Pseudomonas putida, UniProt P00183); type: binding; settings: Wild type; 200 μM test compound, phosphate buffer pH 7.4
wild type P450cam [2] = target: T1, wild type P450cam; test: biochemical; type: binding; settings: Wild type; 200 μM DTT, 200 μM test compound, phosphate buffer; read-out: Vs DTT (percentage displacement of DTT bound to P-450)
P-450cam mutant Y96A [3] = target: T2, P-450cam mutant Y96A (Pseudomonas putida, UniProt P00183, Y97A); test: biochemical; type: binding; settings: Mutant Y96A; 200 μM DTT, 200 μM test compound, phosphate buffer; read-out: Vs DTT (percentage displacement of DTT bound to P-450)
T2 sequence (P00183 2-415 Y97A): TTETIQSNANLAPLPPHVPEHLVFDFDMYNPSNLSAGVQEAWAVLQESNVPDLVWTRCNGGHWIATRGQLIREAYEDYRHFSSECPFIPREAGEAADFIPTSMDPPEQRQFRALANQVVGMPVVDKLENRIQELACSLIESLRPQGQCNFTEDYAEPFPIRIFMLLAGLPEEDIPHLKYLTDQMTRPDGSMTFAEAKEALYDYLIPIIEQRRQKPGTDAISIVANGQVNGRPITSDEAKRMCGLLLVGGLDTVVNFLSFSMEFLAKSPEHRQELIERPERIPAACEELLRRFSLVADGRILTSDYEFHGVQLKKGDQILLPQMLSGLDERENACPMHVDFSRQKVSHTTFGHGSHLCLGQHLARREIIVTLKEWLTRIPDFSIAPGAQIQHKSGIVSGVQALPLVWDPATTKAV

[4] = target: T3, P450cam mutant Y96A, C334A (Pseudomonas putida, UniProt P00183, C335A/Y97A); type: biochemical, P. putida; settings: also contains C334A
T3 construct: reconstituted with putidaredoxin and putidaredoxin reductase
T3 sequence (P00259 whole entry): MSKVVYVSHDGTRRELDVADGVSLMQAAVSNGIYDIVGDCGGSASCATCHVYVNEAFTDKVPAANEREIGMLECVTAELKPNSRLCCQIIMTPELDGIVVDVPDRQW
T3 sequence (P00183 2-415 Y97A/C335A): as the sequence (P00183 2-415 Y97A) above, with C334A counted along it
T3 sequence (P16640 whole entry, further chain): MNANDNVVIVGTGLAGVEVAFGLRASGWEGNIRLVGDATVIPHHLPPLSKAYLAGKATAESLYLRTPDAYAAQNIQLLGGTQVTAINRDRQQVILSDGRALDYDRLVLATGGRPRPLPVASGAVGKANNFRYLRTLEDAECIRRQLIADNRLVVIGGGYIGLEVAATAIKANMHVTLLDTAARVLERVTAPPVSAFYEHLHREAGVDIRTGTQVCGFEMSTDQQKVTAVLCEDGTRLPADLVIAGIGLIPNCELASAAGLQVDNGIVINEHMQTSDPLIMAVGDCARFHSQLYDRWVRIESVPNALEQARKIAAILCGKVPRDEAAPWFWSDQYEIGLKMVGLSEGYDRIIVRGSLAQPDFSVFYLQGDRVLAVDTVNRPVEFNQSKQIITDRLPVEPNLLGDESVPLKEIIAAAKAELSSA
Procedure: A solution containing 10 μM putidaredoxin, 2 μM putidaredoxin reductase, 1 μM cytochrome P-450cam mono-oyxgenase (wild-type or mutant) and 1 mM diphenylmethane in 100 mM KC1, 20 mM KH2 PO4 pH7.4 was preincubated at 25° C. in a shaker for 5 min. The enzymatic reaction was initiated by firstly adding NADH to a total concentration of 2 mM. Further four aliquots of NADH (to increase the NADH concentration by 1 mM each time) were added in intervals of 5 min and the reaction quenched after 30 min by adding 0.5 ml chloroform. The chloroform layer was analysed by gas chromatography.
(§1) Reaction products for some substrate compounds have been purified by high performance liquid chromatography and identified by mass spectroscopy, nuclear magnetic resonance, and/or co-elution. […] Table 4(a) to 4(h) details the product distributions for mutant and substrate combinations where this has been elucidated to date.
All mutants listed below also contain the C334A mutation.
Turnover rate measured as NADH consumption rate
(nmole NADH/nmole P450cam/s).

[5] = target: T3, P450cam mutant Y96A, C334A; type: biochemical, P. putida
Procedure: (§2) […] The enzymatic reaction was initiated by firstly adding NADH to a total concentration of 2 mM. Further four aliquots of NADH (to increase the NADH concentration by 1 mM each time) were added in intervals of 5 min and the reaction quenched after 30 min by adding 0.5 ml chloroform. The chloroform layer was analysed by gas chromatography.
as §1
(§3) Product structure and distributions following oxidation of substrates
(§4) active site mutants. All mutants shown below also contain the C334A

[6] = target: T4, P450cam mutant Y96F, C334A (Pseudomonas putida, UniProt P00183, C335A/Y97F); type: biochemical, P. putida
T4 construct: reconstituted with putidaredoxin and putidaredoxin reductase
T4 sequence (P16640 whole entry): as the sequence (P16640 whole entry, further chain) above
T4 sequence (P00183 2-415 Y97F/C335A): as the sequence (P00183 2-415 Y97A) above, with A96F, C334A counted along it
T4 sequence (P00259 whole entry, further chain): as the sequence (P00259 whole entry) above
Procedure: as §2, §1, §3, §4

P-450cam mutant Y96A [7] = target: T2, P-450cam mutant Y96A; type: biochemical; design: key: Those substrates where oxidation has been demonstrated by means of NADH turnover are marked with a + sign

T1 sequence (P00183 whole entry): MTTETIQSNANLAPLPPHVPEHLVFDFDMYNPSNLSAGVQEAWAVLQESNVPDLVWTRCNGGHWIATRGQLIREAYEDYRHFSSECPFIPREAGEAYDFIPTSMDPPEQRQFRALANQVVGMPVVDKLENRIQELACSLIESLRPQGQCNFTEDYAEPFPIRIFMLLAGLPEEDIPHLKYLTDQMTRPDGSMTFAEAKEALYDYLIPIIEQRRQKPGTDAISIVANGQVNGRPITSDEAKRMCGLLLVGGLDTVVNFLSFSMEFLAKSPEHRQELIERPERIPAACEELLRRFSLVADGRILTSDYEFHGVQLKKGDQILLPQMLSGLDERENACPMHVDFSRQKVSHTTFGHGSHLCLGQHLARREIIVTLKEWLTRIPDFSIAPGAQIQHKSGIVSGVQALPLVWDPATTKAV

| Structure (SMILES) | ΔSpin high/low (percentage of P-450 converted from low- to high-spin) (wild type P450cam [1]) [%] | inhibition at 200 µM (wild type P450cam [2]) [%] | percent displacement of bound DTT at 200 µM (P-450cam mutant Y96A [3]) [%] | Turnover rate measured as NADH consumption rate [4] | other results |
| --- | --- | --- | --- | --- | --- |
| c1ccc2c(c1)CCCC2 [1,2,3,4-Tetrahydro naphthalene] | 5 | 10 | 40 | – | – |
| C1=Cc2ccccc2CC1 [1,2-Dihydronaphthalene] | 5 | 20 | 90 | – | – |
| CCC(C)(C)C [2,2-dimethyl butane] | – | – | – | 14.0 nmole NADH/nmole P450cam/s | – |
| CC(C)C(C)C [2,3-dimethyl butane] | – | – | – | 16.8 nmole NADH/nmole P450cam/s | – |
| CCC(C)C [2-methyl butane] | – | – | – | 4.6 nmole NADH/nmole P450cam/s | – |
| CCCCCC(C)C [2-methyl heptane] | – | – | – | 2.1 nmole NADH/nmole P450cam/s | – |
| CCCCC(C)C [2-methyl hexane] | – | – | – | 10.6 nmole NADH/nmole P450cam/s | Relative activity (WT = 1) [5]: 2.6; Products (%): 2-methyl-2-hexanol ([5]; 2-methyl hexane): 74%; Products (%): 2-methyl-3-hexanol ([5]; 2-methyl hexane): 4%; Products (%): 5-methyl-2-hexanol ([5]; 2-methyl hexane): 8%; Products (%): 5-methyl-2-hexanone ([5]; 2-methyl hexane): 14%; Relative activity (WT = 1) [6]: 2.3; Products (%): 2-methyl-2-hexanol ([6]; 2-methyl hexane): 72%; Products (%): 2-methyl-3-hexanol ([6]; 2-methyl hexane): 7%; Products (%): 5-methyl-2-hexanol ([6]; 2-methyl hexane): 5%; Products (%): 5-methyl-2-hexanone ([6]; 2-methyl hexane): 16% |
| CCC(CC)CC [3-ethyl pentane] | – | – | – | 16.2 nmole NADH/nmole P450cam/s | – |
| CC1(C)[C@@H]2CC[C@@]1(C)C(=O)C2=O [(1R)-(-)-Camphorquinone] | 80 | 80 | 80 | – | – |
| CC1(C)C(=O)[C@]2(C)CC[C@H]1C2 [(1R)-(-)-Fenchone] | 40 | 70 | 80 | – | – |
| C=C(C)[C@H]1CC=C(C)C(=O)C1 [(S)-(+)-Carvone] | 10 | 60 | 80 | – | – |
| C1CCCCC1 [Cyclohexane] | – | – | 60 | – | NADH turnover? (P-450cam mutant Y96A [7]): + |
